{
  "source": "patent US20010041682A1",
  "about": "“Dinucleotides useful for the treatment of lung disease” (priority 1995, published 2001)",
  "key": {"[1]": {"test_system": "Cultured airway epithelia", "experiment": "Cl− secretion by cultured airway epithelia, UTP compared with U2P4 (Example 2)", "format": "cell-based", "details": "for Mean Cl− secretion Induced: 10^−4 M on mucosal surface, tissues pretreated with amiloride (10^−4 M); for Effectiveness (efficacy) on Cl− secretion, UTP compared with U2P4: 10^−4 M, the highest concentration tested, amiloride (10^−4 M) pretreated", "description": "(§1) Normal airway cells were cultured on permeable supports and Cl^− secretion assayed as previously described in M. J. Stutts, et al., Am. J. Physiol. 267, C1442-C1451 (1994). Cl^− secretion was measured after administration of the dinucleotide A2P4 (Sigma Chemicals, St. Louis, Mo.). Amiloride was added to block airway epithelial sodium absorption.\nStudies were carried out according to the method described in Example 1 to compare the effectiveness (efficacy) of UTP and U2P4. Cultured airway epithelia were exposed to a concentration of from 10^−9 M to […] of either UTP or U2P4 in 6 ml of solution circulating over the mucosal surface. The tissues were pretreated with amiloride (10^−4 M) to block Na^+ absorption. Under these conditions, the current generated by the tissues is due to Cl^− secretion. UTP and U2P4 induced a similar pattern of Cl^− secretion. At 10^−4 M, the highest concentration tested, UTP and U2P4 were equieffective (equiefficacious)."}, "[2]": {"test_system": "airway epithelia", "experiment": "Cl− secretion by cultured normal airway cells on permeable supports (Example 1)", "format": "cell-based", "description": "as §1\nMoreover, the administration of A2P4 had no effect on Cl^− secretion in airway epithelia pre-stimulated with UTP, which is known to activate non-CFTR Cl^− channels. […] Stimulation of this receptor is thus a therapeutic strategy for certain lung diseases, including cystic fibrosis."}},
  "data": [
    {"compound": "O=c1ccn([C@@H]2O[C@H](COP(=O)(O)OP(=O)(O)OP(=O)(O)OP(=O)(O)OC[C@H]3O[C@@H](n4ccc(=O)[nH]c4=O)[C@H](O)[C@@H]3O)[C@@H](O)[C@H]2O)c(=O)[nH]1", "note": "[U2P4, UppppU]", "values": [
      {"measurement": "Mean Cl− secretion Induced", "setting": "[1]", "result": 43.8, "unit": "μA/cm^2"},
      {"measurement": "Effectiveness (efficacy) on Cl− secretion, UTP compared with U2P4", "setting": "[1]", "result": "equieffective"}
    ]},
    {"compound": "O=c1ccn([C@@H]2O[C@H](COP(=O)(O)OP(=O)(O)OP(=O)(O)O)[C@@H](O)[C@H]2O)c(=O)[nH]1", "note": "[UTP, reference compound]", "values": [
      {"measurement": "Mean Cl− secretion Induced", "setting": "[1]", "result": 45.3, "unit": "μA/cm^2"},
      {"measurement": "Effectiveness (efficacy) on Cl− secretion, UTP compared with U2P4", "setting": "[1]", "result": "equieffective"}
    ]},
    {"compound": "Nc1ncnc2c1ncn2[C@@H]1O[C@H](COP(=O)(O)OP(=O)(O)OP(=O)(O)OP(=O)(O)OC[C@H]2O[C@@H](n3cnc4c(N)ncnc43)[C@H](O)[C@@H]2O)[C@@H](O)[C@H]1O", "note": "[A2P4]", "values": [
      {"measurement": "Effect on Cl− secretion", "setting": "[2]; airway epithelia pre-stimulated with UTP", "result": "no effect"},
      {"measurement": "Effect on Cl− secretion", "setting": "[2]; exposed to the basolateral surface of the airway epithelial preparation, amiloride added", "result": "little effect"},
      {"measurement": "Effect on Cl− secretion", "setting": "[2]; luminal surface, airway epithelia treated with forskolin, amiloride added", "result": "stimulated additional Cl^− secretion"}
    ]}
  ]
}
